Measurements published in PMC12281424, “A Rac-specific competitive inhibitor of guanine nucleotide binding reduces metastasis in triple-negative breast cancer” (Cell Reports Medicine, 2025).
“Also recorded” adds a separate entry of the source.

Columns and labels:
[1] = biological target: NIM1(h) (Homo sapiens, UniProt Q8IY84); experiment: Kinase Profiler; type: biochemical
Procedure: (§1) The kinase profiler was performed by the company Eurofins (Discovery, Panlab and Cerep).

[2] = test system: RAC1-GTP levels in MDA-MB-468 Luc cells; experiment: RAC-GTP immunofluorescence; type: cell-based
Procedure: Luciferase (Luc, green) was used to detect the cells. […] (C) Quantification of colony number of indicated cancer cell lines in the presence of A41 (10 μM) expressed as the percentage of control in the absence of A41. […] (D) Immunoblot analysis and corresponding quantification of AKT and P44/42 expression and phosphorylation (pAKT, p44/42) in MDA-MB-468 Luc cells in the absence (−) and presence of NSC23766 or A41 (1 h at 10^−5 M). […] (E) 3D invasion assay of MDA-MB-468 Luc and cancer-associated fibroblasts (CAFs) and corresponding quantification (scale bars: 200 μm).
After indicated treatments, cells were fixed with 4% paraformaldehyde and permeabilized in PBS 0.5% Triton X-100. To assess RAC1 activity, cells were then incubated with RAC-GTP antibody (26903, NewEast Biosciences, King of Prussia, Pa) (dilution 1/500) overnight at room temperature, followed by secondary Alexa 568-labeled anti-mouse antibody (dilution 1/1000). Cancer cells were detected with firefly luciferase antibody (ab21176, Abcam) (dilution 1/500) overnight at room temperature, followed by secondary Alexa 488-labeled anti-rabbit antibody (dilution 1/1000). To assess cytoskeleton organization, cells were incubated with Alexa Fluor 488 phalloidin (A12379, Invitrogen) to visualize F-actin. After staining, cells were mounted in Prolong gold antifade reagent with DAPI and images were captured by a fluorescence microscope.

[3] = biological target: ZIPK(h) (Homo sapiens, UniProt O43293); experiment: Kinase Profiler; type: biochemical
Procedure: as §1

[4] = test system: Phosphodiesterase PDE3; experiment: Safety screen; type: biochemical, human
Procedure: (§2) Blood cell counts, kinase profiler, safety screen, bacterial cytotoxicity, Ames, micronucleus assays were performed by the company Eurofins (France).

[5] = biological target: MST3(h) (Homo sapiens, UniProt Q9Y6E0); experiment: Kinase Profiler; type: biochemical
Procedure: as §1

[6] = biological target: Tachykinin NK1 (Homo sapiens, UniProt P25103); experiment: Safety screen; type: binding
Tachykinin NK1, sequence (P25103 whole entry): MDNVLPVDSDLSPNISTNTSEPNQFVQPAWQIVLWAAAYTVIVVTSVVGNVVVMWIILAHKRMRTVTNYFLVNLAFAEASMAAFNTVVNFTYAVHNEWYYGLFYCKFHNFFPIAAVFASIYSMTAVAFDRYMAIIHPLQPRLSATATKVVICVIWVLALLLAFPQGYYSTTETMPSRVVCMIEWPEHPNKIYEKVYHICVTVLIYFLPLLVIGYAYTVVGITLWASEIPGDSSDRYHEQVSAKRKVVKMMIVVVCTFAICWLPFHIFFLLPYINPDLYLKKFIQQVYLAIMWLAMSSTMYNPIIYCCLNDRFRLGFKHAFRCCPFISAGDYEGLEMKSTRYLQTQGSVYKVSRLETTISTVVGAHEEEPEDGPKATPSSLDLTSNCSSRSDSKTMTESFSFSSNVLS
Procedure: as §2

[7] = biological target: Leukotriene, Cysteinyl CysLT1 (Homo sapiens, UniProt Q9Y271); experiment: Safety screen; type: binding
Leukotriene, Cysteinyl CysLT1, sequence (Q9Y271 whole entry): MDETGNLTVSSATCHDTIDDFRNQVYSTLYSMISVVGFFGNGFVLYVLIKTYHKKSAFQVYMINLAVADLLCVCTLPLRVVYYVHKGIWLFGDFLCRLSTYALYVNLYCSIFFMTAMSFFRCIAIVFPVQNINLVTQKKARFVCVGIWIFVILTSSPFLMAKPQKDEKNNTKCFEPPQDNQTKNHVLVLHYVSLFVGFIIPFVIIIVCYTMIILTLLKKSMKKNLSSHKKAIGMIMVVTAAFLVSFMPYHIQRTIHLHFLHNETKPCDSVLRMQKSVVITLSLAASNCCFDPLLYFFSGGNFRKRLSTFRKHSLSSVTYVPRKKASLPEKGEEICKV
Procedure: as §2

[8] = test system: GABAA, Chloride Channel, TBOB; experiment: Safety screen; type: binding, rat
Procedure: as §2

[9] = biological target: Ret(h) (Homo sapiens, UniProt P07949); experiment: Kinase Profiler; type: biochemical
Procedure: as §1

[10] = biological target: BRK(h) (Homo sapiens, UniProt Q13882); experiment: Kinase Profiler; type: biochemical
Procedure: (§3) Blood cell counts, kinase profiler, safety screen, bacterial cytotoxicity, Ames, micronucleus assays were performed by the company Eurofins (France). The kinase profiler was performed by the company Eurofins (Discovery, Panlab and Cerep).

[11] = biological target: MAP4K5(h) (Homo sapiens, UniProt Q9Y4K4); experiment: Kinase Profiler; type: biochemical
MAP4K5(h), sequence (Q9Y4K4 whole entry): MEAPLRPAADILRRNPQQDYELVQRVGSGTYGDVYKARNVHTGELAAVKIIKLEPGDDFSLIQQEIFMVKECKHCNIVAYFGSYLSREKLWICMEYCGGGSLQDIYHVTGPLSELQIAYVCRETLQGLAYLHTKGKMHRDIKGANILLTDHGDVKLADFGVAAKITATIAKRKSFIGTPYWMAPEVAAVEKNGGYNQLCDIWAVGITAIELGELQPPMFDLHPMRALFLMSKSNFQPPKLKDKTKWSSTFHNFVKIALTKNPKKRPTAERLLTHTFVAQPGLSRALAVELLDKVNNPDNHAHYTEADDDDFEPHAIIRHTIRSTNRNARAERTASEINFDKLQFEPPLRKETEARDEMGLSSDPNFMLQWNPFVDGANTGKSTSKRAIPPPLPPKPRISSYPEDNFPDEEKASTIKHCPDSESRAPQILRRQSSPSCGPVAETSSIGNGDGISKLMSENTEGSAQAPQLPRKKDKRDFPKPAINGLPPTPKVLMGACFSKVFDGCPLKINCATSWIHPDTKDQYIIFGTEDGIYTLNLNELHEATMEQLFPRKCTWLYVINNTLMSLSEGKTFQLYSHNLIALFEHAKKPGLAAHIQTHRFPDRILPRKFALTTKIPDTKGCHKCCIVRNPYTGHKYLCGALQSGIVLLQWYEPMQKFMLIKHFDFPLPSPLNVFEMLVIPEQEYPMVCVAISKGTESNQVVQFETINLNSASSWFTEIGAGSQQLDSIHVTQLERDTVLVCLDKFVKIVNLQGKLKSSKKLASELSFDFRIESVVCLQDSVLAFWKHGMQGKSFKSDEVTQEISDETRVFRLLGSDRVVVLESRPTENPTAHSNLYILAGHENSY
Procedure: as §1

[12] = test system: CT26 cells; experiment: Colorectal tumor model (hepatic metastasis); type: in vivo, mouse; settings: 25 mg/kg/day i.p., 2 weeks after s.c. implantation
Text: Figure 7 A41 decreases metastasis of colorectal cancer cells in vivo (A–C) Therapeutic effect of A41 on the pulmonary metastasis formation of colorectal circulating tumoral cells (CT26 cells). In control, A41-, and cisplatin-treated mice, metastasis surface (A), survival (B), and body weight (C) were quantified (N = 10 mice; ∗p < 0.05 vs. controls). (D) Therapeutic effect of A41 on colorectal tumor-dependent hepatic metastasis formation (N = 5–8 mice; ∗p < 0.05, ∗∗p < 0.01, and ∗∗∗p < 0.001 vs. controls).
8 weeks-old BALB/c female mice were obtained from the School of Veterinary Sciences at the National University of La Plata and treated in accordance with the Canadian Council on Animal Care and ARRIVE guidelines. 1x10^6 CT26 viable cells were resuspended in PBS (100 μL) and injected subcutaneously into the right flank of each animal. Mice were distributed and treated as follows: control, consist in a daily intraperitoneal (ip) administration of vehicle (5% DMSO, 45% PEG400); A41, ip administration of 25 mg/kg BW/day; 5-FU, ip administration 20 mg/kgBW/week in sterile water; A41+5-FU, ip administration of A41 and 5-FU treatments. Liver metastases were identified and quantified under a stereoscopic magnifying glass. These lesions were distinguished by their isolated circular shape, their marked whitish color contrasting with the reddish liver tissue, and their raised appearance.

[13] = biological target: NEK9(h) (Homo sapiens, UniProt Q8TD19); experiment: Kinase Profiler; type: biochemical
NEK9(h), sequence (Q8TD19 whole entry): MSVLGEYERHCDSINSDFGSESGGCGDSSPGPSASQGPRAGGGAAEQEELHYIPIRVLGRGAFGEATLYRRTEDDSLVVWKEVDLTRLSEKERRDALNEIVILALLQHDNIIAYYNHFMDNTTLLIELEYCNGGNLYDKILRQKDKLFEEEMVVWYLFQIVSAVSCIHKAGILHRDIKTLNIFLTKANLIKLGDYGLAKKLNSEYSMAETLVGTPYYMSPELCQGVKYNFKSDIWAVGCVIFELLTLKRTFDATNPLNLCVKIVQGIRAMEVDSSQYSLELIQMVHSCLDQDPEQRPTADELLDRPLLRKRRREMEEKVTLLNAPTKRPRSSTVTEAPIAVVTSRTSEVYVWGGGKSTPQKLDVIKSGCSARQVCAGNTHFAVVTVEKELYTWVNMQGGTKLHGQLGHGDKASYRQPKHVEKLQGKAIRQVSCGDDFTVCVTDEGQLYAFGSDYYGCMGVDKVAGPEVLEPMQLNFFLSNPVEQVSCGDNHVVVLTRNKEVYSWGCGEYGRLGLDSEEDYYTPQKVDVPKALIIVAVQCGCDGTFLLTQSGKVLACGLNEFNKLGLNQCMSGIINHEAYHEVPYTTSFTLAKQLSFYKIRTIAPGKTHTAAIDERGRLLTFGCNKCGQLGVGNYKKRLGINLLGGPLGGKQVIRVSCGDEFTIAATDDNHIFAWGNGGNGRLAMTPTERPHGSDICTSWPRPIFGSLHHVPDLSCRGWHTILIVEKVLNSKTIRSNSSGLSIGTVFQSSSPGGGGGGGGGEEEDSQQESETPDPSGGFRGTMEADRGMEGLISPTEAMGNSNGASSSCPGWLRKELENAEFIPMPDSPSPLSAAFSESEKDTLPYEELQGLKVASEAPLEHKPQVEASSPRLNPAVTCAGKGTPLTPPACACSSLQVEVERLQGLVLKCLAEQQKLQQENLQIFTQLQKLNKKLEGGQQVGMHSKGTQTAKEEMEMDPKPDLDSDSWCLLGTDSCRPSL
Procedure: as §1

[14] = biological target: SRPK1(h) (Homo sapiens, UniProt Q96SB4); experiment: Kinase Profiler; type: biochemical
SRPK1(h), sequence (Q96SB4 whole entry): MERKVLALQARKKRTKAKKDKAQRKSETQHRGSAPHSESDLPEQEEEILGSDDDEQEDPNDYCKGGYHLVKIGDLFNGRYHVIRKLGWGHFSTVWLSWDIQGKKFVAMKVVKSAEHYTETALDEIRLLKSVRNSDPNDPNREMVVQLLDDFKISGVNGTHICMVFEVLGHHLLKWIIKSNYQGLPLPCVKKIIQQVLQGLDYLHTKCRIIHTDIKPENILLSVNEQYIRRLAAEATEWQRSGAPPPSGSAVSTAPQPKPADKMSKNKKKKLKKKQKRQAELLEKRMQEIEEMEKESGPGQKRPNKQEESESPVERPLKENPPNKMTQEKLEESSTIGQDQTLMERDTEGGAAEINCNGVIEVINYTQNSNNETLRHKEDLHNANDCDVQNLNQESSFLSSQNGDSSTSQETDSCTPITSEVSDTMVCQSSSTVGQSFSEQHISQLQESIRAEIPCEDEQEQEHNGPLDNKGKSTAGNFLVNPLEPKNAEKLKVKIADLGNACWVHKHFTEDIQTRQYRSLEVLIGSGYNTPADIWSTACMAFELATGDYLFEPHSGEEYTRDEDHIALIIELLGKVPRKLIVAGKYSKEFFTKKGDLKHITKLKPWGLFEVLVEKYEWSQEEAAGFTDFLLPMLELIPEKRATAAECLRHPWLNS
Procedure: as §1

[15] = biological target: STK33(h) (Homo sapiens, UniProt Q9BYT3); experiment: Kinase Profiler; type: biochemical
Procedure: as §1

[16] = biological target: PKCη(h) (Homo sapiens, UniProt P24723); experiment: Kinase Profiler; type: biochemical
PKCη(h), sequence (P24723 whole entry): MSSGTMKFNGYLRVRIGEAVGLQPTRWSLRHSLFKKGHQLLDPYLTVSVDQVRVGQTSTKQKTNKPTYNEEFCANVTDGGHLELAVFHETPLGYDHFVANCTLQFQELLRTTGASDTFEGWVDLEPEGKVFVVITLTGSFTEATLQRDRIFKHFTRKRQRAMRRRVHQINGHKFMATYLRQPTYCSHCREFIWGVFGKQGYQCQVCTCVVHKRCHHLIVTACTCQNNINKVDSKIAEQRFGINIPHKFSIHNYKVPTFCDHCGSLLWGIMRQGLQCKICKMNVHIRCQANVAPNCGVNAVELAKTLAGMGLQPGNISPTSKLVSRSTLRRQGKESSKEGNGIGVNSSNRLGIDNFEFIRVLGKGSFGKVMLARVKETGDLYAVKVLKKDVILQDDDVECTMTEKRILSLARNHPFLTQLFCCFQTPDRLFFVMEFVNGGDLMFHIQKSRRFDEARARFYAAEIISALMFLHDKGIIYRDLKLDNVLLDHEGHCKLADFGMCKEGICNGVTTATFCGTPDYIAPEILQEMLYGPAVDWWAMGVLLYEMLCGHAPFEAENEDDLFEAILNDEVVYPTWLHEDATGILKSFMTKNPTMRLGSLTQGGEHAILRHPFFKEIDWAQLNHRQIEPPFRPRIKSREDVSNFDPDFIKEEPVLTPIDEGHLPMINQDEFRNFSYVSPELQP
Procedure: as §1

[17] = test system: CK1(y); experiment: Kinase Profiler; type: biochemical, yeast
Procedure: as §1

[18] = biological target: Axl(h) (Homo sapiens, UniProt P30530); experiment: Kinase Profiler; type: biochemical
Procedure: as §3

[19] = biological target: cKit(D816H)(h) (Homo sapiens, UniProt P10721, D816H); experiment: Kinase Profiler; type: biochemical
Procedure: as §3

[20] = biological target: Src(1-530)(h) (Homo sapiens, UniProt P12931); experiment: Kinase Profiler; type: biochemical
Procedure: as §1

[21] = biological target: FGFR1(h) (Homo sapiens, UniProt P11362); experiment: Kinase Profiler; type: biochemical
Procedure: as §1

[22] = biological target: PIP5K1g(h) (Homo sapiens, UniProt O60331); experiment: Kinase Profiler; type: biochemical
PIP5K1g(h), sequence (O60331 whole entry): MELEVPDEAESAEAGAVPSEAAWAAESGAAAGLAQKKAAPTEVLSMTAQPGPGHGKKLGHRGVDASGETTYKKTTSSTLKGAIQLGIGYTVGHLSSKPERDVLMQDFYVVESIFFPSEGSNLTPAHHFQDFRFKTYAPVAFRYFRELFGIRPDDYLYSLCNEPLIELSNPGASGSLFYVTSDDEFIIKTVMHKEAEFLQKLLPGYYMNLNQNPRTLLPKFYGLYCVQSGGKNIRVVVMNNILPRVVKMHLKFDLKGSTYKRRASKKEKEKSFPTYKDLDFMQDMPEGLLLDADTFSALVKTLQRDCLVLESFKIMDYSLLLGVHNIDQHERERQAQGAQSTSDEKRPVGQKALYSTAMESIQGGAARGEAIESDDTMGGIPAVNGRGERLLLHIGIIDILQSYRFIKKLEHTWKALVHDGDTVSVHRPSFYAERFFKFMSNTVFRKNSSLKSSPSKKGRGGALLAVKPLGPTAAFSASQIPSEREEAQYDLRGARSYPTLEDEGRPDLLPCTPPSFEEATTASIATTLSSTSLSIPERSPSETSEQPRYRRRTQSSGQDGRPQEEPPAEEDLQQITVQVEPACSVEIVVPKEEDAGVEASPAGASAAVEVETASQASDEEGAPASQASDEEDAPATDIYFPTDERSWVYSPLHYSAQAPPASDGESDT
Procedure: as §3

[23] = biological target: Muscarinic M2 (Homo sapiens, UniProt P08172); experiment: Safety screen; type: binding
Muscarinic M2, sequence (P08172 whole entry): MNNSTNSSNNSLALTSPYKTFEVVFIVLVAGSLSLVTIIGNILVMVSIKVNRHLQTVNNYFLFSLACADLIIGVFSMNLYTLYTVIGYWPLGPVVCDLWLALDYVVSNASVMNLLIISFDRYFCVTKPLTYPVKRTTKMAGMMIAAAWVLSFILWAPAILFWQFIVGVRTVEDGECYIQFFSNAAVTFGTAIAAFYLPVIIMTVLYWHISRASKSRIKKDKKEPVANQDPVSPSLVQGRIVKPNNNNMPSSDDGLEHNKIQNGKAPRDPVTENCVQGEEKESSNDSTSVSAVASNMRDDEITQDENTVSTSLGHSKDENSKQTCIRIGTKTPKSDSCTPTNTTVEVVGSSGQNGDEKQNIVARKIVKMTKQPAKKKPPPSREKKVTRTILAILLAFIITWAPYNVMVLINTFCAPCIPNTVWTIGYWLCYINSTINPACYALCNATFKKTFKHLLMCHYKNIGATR
Procedure: as §2

[24] = biological target: PKCγ(h) (Homo sapiens, UniProt P05129); experiment: Kinase Profiler; type: biochemical
Procedure: as §1

[25] = biological target: CDK5/p25(h) (Homo sapiens, UniProt Q00535); experiment: Kinase Profiler; type: biochemical
Procedure: as §3

[26] = biological target: BrSK2(h) (Homo sapiens, UniProt Q8IWQ3); experiment: Kinase Profiler; type: biochemical
Procedure: as §3

For `COc1ccc(OC)c(NS(=O)(=O)c2ccc(NC(=O)CCSc3ccc(C)cc3)cc2)c1` [Compound A41], the “Activity(%)” value [1] was 105%, the “decrease of active RAC1-GTP levels” value ([2]; 10^-5 M, 1 h) was “more than 50%” and the IC50 ([2]; dose-response curve, Figure 5A) was 0.81 µM. The “Activity(%)” value [3] was 103%, the “% inh.” value [4] was 9% and the “Activity(%)” value [5] was 95%. The “% inh.” value [6] was 41%, the “% inh.” value [7] was 14% and the “% inh.” value [8] was 45%. The “Activity(%)” value [9] was 104%, the “Activity(%)” value [10] was 107% and the “Activity(%)” value [11] was 102%. The “number of liver metastases” value [12] was “significantly reduced the number of metastases; also recorded: more effective than 5-fluorouracil (5FU)”, the “Activity(%)” value [13] was 107% and the “Activity(%)” value [14] was 114%. The “Activity(%)” value [15] was 98%, the “Activity(%)” value [16] was 118% and the “Activity(%)” value [17] was 98%. The “Activity(%)” value [18] was 101%, the “Activity(%)” value [19] was 109% and the “Activity(%)” value [20] was 105%. The “Activity(%)” value [21] was 83%, the “Activity(%)” value [22] was 104% and the “% inh.” value [23] was 12%. For the same compound, the “Activity(%)” value [24] was 112%, the “Activity(%)” value [25] was 110% and the “Activity(%)” value [26] was 118%.
